According to ChEMBL document CHEMBL2321810, “QSAR investigation of NaV1.7 active compounds using the SVM/Signature approach and the Bioclipse Modeling platform” (Bioorg Med Chem Lett, 2013):

Target: Sodium channel protein type 9 subunit alpha (Homo sapiens, UniProt Q15858)
Assay: cell-based

Sequence of Sodium channel protein type 9 subunit alpha (Q15858 whole entry): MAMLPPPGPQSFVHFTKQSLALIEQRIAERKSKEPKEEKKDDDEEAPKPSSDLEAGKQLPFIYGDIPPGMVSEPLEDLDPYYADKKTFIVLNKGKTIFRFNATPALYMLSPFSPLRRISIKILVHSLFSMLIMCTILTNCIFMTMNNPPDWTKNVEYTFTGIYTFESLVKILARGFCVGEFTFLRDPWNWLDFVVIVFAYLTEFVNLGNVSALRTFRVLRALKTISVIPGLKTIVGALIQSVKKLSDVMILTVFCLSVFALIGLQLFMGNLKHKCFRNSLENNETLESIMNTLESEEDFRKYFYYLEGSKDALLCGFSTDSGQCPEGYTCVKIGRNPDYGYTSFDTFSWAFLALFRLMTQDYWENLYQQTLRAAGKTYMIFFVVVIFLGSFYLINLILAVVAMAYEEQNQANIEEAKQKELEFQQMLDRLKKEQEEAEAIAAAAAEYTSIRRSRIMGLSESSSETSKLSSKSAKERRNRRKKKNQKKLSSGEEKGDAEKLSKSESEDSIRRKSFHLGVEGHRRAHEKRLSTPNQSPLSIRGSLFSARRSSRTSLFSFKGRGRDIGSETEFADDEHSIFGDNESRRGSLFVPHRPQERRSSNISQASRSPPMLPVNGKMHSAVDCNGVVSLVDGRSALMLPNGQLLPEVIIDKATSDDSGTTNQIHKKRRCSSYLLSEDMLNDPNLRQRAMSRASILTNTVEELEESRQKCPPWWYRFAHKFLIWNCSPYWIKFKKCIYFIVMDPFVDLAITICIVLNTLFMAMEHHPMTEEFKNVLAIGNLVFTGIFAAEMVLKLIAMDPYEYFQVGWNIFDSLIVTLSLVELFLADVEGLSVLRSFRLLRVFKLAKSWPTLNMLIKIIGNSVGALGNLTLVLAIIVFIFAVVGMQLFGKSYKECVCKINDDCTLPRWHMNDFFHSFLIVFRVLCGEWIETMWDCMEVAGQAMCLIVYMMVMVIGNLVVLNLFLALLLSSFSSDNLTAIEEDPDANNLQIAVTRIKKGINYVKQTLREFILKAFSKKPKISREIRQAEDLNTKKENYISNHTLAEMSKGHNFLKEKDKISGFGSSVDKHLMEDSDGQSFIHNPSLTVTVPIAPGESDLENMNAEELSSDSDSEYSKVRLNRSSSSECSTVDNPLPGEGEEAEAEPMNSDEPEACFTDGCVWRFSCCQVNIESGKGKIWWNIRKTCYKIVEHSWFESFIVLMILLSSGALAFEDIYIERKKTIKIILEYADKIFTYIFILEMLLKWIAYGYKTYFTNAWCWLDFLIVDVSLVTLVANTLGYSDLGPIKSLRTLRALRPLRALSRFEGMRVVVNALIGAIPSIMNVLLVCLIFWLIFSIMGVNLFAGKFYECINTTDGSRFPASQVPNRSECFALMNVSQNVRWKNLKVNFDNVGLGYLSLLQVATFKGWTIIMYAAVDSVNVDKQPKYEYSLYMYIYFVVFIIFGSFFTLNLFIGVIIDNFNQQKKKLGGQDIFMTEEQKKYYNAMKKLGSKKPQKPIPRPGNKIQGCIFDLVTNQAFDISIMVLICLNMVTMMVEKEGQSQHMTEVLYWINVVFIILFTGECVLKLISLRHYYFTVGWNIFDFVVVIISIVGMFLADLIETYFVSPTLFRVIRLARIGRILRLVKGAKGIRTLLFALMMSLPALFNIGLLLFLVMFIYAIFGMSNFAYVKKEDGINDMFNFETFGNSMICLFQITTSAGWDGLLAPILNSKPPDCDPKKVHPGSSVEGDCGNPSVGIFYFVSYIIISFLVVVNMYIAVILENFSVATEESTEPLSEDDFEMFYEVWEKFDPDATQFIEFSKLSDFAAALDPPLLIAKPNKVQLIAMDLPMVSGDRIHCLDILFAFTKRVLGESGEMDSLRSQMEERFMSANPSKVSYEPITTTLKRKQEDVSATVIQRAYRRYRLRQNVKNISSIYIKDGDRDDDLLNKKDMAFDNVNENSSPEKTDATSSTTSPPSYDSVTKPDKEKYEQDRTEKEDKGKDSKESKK

IC50 | SMILES
3000 nM | COc1cc(Oc2ccc(S(=O)(=O)Nc3ccc(F)cn3)cc2C#N)ccc1-n1cccn1
3000 nM | N#Cc1cc(S(=O)(=O)Nc2ccc(F)cn2)ccc1Oc1ccc(-c2cocn2)cc1
2700 nM | COc1cc(-c2ccc(Oc3ccc(S(=O)(=O)Nc4nccs4)cc3)c(F)c2)n(C)n1
3000 nM | N#Cc1cc(S(=O)(=O)Nc2ccc(F)cn2)ccc1Oc1ccccc1C1CCCCO1 (stereo not drawn)
3000 nM | N#Cc1cc(S(=O)(=O)Nc2ccccc2C(F)(F)F)ccc1Oc1ccccc1-c1ccccc1
3000 nM | CC(C)Oc1cc(-c2cc(F)ccc2Oc2ccc(S(=O)(=O)Nc3cscn3)cc2C#N)n(C)n1
3000 nM | Cc1ccc(NS(=O)(=O)c2ccc(Oc3ccccc3-c3ccccc3)c(C#N)c2)nc1
3000 nM | CCc1nnc(C)n1-c1ccc(Oc2ccc(S(=O)(=O)Nc3ccc(F)cn3)cc2C#N)cc1
3000 nM | N#Cc1cc(S(=O)(=O)Nc2ccc(F)cn2)ccc1Oc1ccc(-n2ccnc2)cc1
3000 nM | Cc1nc(-c2cccc(Oc3ccc(S(=O)(=O)Nc4ccc(F)cn4)cc3C#N)c2)no1
3000 nM | Cc1nnc(-c2ccc(Oc3ccc(S(=O)(=O)Nc4ccc(F)cn4)cc3C#N)cc2)o1
1500 nM | Cn1nccc1-c1cc(Cl)ccc1Oc1ccc(S(=O)(=O)Nc2ccon2)cc1C#N
1000 nM | N#Cc1cc(S(=O)(=O)Nc2ncns2)ccc1Oc1ccc(-c2nc(CO)co2)cc1
1000 nM | N#Cc1cc(S(=O)(=O)Nc2nccs2)ccc1Oc1ccc(-n2cc(F)cn2)cc1
1100 nM | Cc1cc(-c2ccnn2C)ccc1Oc1ccc(S(=O)(=O)Nc2ncc(F)s2)cc1C#N
1000 nM | CCn1nc(C(F)(F)F)cc1-c1ccc(Oc2ccc(S(=O)(=O)Nc3ncccn3)cc2C#N)cc1
1000 nM | Cn1ncnc1-c1cc(Cl)ccc1Oc1ccc(S(=O)(=O)Nc2ncc(F)s2)cc1F
1000 nM | CN(C)C(=O)c1cnn(-c2ccc(Oc3ccc(S(=O)(=O)Nc4nccs4)cc3C#N)cc2)c1
1000 nM | COCc1cnn(-c2ccc(Oc3ccc(S(=O)(=O)Nc4nccs4)cc3C#N)cc2)c1

IC50 | SMILES
1000 nM | CN(C)Cc1cnn(-c2ccc(Oc3ccc(S(=O)(=O)Nc4nccs4)cc3C#N)cc2)c1
1000 nM | CC(C)(C)NC(=O)c1cnn(-c2ccc(Oc3ccc(S(=O)(=O)Nc4nccs4)cc3C#N)cc2)c1
1000 nM | N#Cc1cc(S(=O)(=O)Nc2cscn2)ccc1Oc1ccc(Cl)cc1-n1cnc(C(F)(F)F)c1
1000 nM | N#Cc1cc(S(=O)(=O)Nc2cscn2)ccc1Oc1ccc(F)cc1-c1cnn(CC(F)(F)F)c1
1000 nM | N#Cc1ccnc(NS(=O)(=O)c2ccc(Oc3ccccc3-c3ccccc3)c(C#N)c2)c1
1000 nM | Cn1nccc1-c1cccc(Oc2ccc(S(=O)(=O)Nc3nccs3)cc2C#N)c1
1000 nM | COc1cccc(-c2ccc(Oc3ccc(S(=O)(=O)Nc4nccs4)cc3C#N)cc2)n1
1000 nM | N#Cc1cc(S(=O)(=O)Nc2nccs2)ccc1Oc1ccc(-c2nccc(C(F)(F)F)n2)cc1
1000 nM | N#Cc1cc(S(=O)(=O)Nc2nccs2)ccc1Oc1ccc(-c2cn(CC(F)(F)F)nc2N)cc1
1000 nM | Cn1cc(-c2ccc(Oc3ccc(S(=O)(=O)Nc4nccs4)cc3C#N)cc2)c(N)n1
1000 nM | N#Cc1cc(S(=O)(=O)Nc2nccs2)ccc1Oc1ccc(N2CCNC2=O)cc1
1000 nM | CN1CCN(c2ccc(Oc3ccc(SNc4nccs4)cc3C#N)cc2)C1=O
1000 nM | N#Cc1cc(S(=O)(=O)Nc2nccs2)ccc1Oc1ccc(N2CCCC2=O)cc1
1000 nM | N#Cc1cc(S(=O)(=O)Nc2nccs2)ccc1Oc1ccc(-n2cccn2)cc1C(F)(F)F
1000 nM | N#Cc1cc(S(=O)(=O)Nc2nccs2)ccc1Oc1ccc(-n2cc(Cl)cn2)c(C(=O)O)c1
1000 nM | CC(C)(C)n1ccc(-c2cc(F)ccc2Oc2cc(F)c(S(=O)(=O)Nc3cscn3)cc2Cl)n1
1000 nM | Nc1nccc(-c2cc(F)ccc2Oc2cc(F)c(S(=O)(=O)Nc3ncc(Cl)s3)cc2F)n1
1000 nM | Cc1scnc1NS(=O)(=O)c1cc(Cl)c(Oc2ccc(F)cc2-c2ccnn2C)cc1F
1000 nM | Cn1nccc1-c1ccc(Oc2ccc(S(=O)(=O)Nc3nccs3)cc2C#N)cn1
